Results on two compounds are retold here after publication PMC5688144, “Assay interference and off-target liabilities of reported histone acetyltransferase inhibitors” (Nature Communications, 2017).

Bounds are passed on as bounds.

For series [1], the target named is MOZ. The note with it: original report; ref 26 (Supplementary References); cited from earlier work.
For series [2], the system named is MOF. The arrangement: method as in ref 19, 26 (Supplementary References). The note with it: original report; 26 (Supplementary References); cited from earlier work.
Series [3] is described as follows: UPLC-MS gross compound stability in assay buffer. The conditions noted are these: 25 mM sodium phosphate, pH 7.0, 30 °C, no GSH or CoA. On the procedure: Select compounds were incubated up to 24 h for additional stability analyses. Chromatograms and mass spectra were qualitatively analyzed for the formation of new peaks and/or loss of parent peaks.
Series [4] addresses T1, human La antigen (Homo sapiens, UniProt P05455, T302N).
T1 construct: amino acids 100–324 of the human La antigen (plus T302N mutation); 6xHis (N); 6xHis (C); host or cells: Escherichia coli Rosetta cells
T1 sequence (P05455 100-324 T302N): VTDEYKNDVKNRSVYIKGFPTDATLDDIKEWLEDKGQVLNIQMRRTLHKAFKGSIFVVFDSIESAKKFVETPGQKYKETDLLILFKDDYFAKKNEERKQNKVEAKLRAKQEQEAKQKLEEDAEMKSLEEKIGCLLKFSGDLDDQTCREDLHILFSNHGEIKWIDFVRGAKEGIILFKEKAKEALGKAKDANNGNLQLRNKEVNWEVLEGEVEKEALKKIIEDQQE
Nature of the series: ALARM NMR. In kind it is binding. The conditions noted are these: 400 μM compound; for ALARM NMR, (-) DTT: 0 mM DTT; for ALARM NMR, (+) DTT: DTT present; for ALARM NMR interpretation: with and without DTT. The text has this:
The gene encoding amino acids 100–324 of the human La antigen (plus T302N mutation) was cloned into pET28b + vector (Novagen) with both an N- and C-terminal 6xHis tag (addgene.org, plasmid ID 90209). The sequence identity of the ALARM NMR plasmid construct was verified by Sanger sequencing of the transgene region and next-generation sequencing of the whole plasmid.
Plasmid was transformed into Escherichia coli Rosetta cells (Novagen) and cultured in M9 minimal media. The La antigen was labeled by adding ^13C-labeled amino acid precursors ([3-^13C]-α-ketobutyrate and [3,3′-^13C]-α-ketoisovalerate sodium salts; Cambridge Isotope Laboratories; 250 mg L^−1 final concentrations) to culture medium 30 min before induction with IPTG (1 mM final concentration). Bacteria were collected after incubation at 25 °C for 8 h and washed with ice-cold phosphate-buffered saline (PBS). Washed cells were lysed by French press in ice-cold lysis buffer (50 mM Tris, pH 7.6, 300 mM NaCl, 10% glycerol (v/v), 5 mM β-mercaptoethanol (BME), 5 mM imidazole, 2 mM MgCl2, benzonase, and protease inhibitor cocktail), followed by an additional brief sonication step (3 × 15 s pulse sequence) on ice. This lysed solution was centrifuged (30,000×g for 30 min, two cycles) to remove cellular debris, then loaded onto a pre-washed Ni-NTA bead column (Qiagen) kept at 4 °C and washed with buffer (50 mM Tris, pH 7.6, 300 mM NaCl, 10% glycerol (v/v), 5 mM BME, 5 mM imidazole). The La antigen was eluted with an elution buffer (50 mM Tris, pH 7.6, 300 mM NaCl, 10% glycerol (v/v), 5 mM BME, imidazole gradient ranging from 5 mM to 0.5 M). […] Aliquots were flash-frozen in liquid N2 and stored at −80 °C until further use. Before use, aliquots of ~150 μM protein were incubated in the presence of 20 mM DTT at 37 °C for 1 h, then dialyzed (25 mM sodium phosphate buffer, pH 7.0 (no DTT)) in 16 h cycles at 4 °C with constant nitrogen bubbling and with gentle stirring, for three total buffer cycles.
For standard testing conditions, the [^1H-^13C]-HMQC spectra were acquired in 25 mM sodium phosphate buffer, pH 7.0, 10% D2O (v/v; CIL) ± 400 μM test compounds delivered from the aforementioned stock solutions, and ± 20 mM non-deuterated DTT. Final concentration of DMSO was 4.0% (v/v). Reaction solutions were mixed, then centrifuged for 5 min (1000×g) in non-binding 384-well microplates at RT, then incubated at 37 °C for 1 h and then 30 °C for 15 h before obtaining spectra. Samples were checked for evidence of gross precipitation. Data were recorded at 298 K on a Bruker UltraShield 700 MHz NMR spectrometer equipped with a Bruker 1.7 mm TCI Cryoprobe and Bruker SampleJet autosampler. Samples were tested at 50 μM protein concentrations using 16 scans, 2048 complex points in F2, and 80 points in F1 using standard protein [^1H-^13C]-HMQC and water suppression pulse sequences.
Data were analyzed in TopSpin™ 3.5 (Bruker). Reactions were normalized to equivalent DMSO controls. Non-reactive compounds were identified by the absence of chemical shifts or changes in peak intensities (^13C-methyl) ± 20 mM DTT.

For series [5], the target named is T2, PCAF (Homo sapiens, UniProt Q92831).
T2 construct: Reaction Biology Corporation (assays run by this contract lab)
The conditions noted are these: original report; 27 (Supplementary References); cited from earlier work.

Series [6] has as its target MOZ. More on the design: method as in ref 26 (Supplementary References). The note with it: original report; ref 26 (Supplementary References); cited from earlier work.
Series [7] addresses T3, AmpC β-lactamase (Escherichia coli, UniProt P00811).
T3 construct: Recombinant E. coli AmpC (amino acids 20–377); purchased MyBioSource.com
Briefly: biochemical. More on the design: species or system E. coli. The note with it: 10 μM compound; ± 0.01% Triton X-100. On the procedure: Selected compounds were assessed for aggregation using a modified AmpC β-lactamase counter-screen[24],[32],[64]. Recombinant E. coli AmpC (amino acids 20–377) was obtained from MyBioSource.com. Testing was performed in ALARM NMR buffer (25 mM sodium phosphate, pH 7.0) in flat-bottom UV-transparent 96-well microplates in 150 μL reaction volumes. Compounds were tested in triplicate at 10 μM final concentrations in either the presence or absence of freshly-prepared 0.01% Triton X-100 (v/v). Final concentration of DMSO was 2.0% (v/v). Compounds were incubated with ~5 nM AmpC in 147 μL reaction buffer for 5 min at RT, followed by the addition of 3 μL of nitrocefin substrate (100 μM final concentration). Reaction solutions were gently mixed by pipetting up and down three times using a multichannel pipette. […] Percent activity was normalized to DMSO-only controls. Fluconazole and lidocaine were included as negative aggregation control compounds. Rottlerin was included as a positive aggregation control compound. Aggregators were defined as compounds with significant detergent-dependent changes in AmpC activity (t-test, adjusted P-value <0.05; mean differences greater than 30%). Activators were defined as compounds that increased AmpC enzymatic activity.

Series [8] can be described thus: Absorbance spectra. In kind it is physicochemical. The conditions noted are these: 25 mM sodium phosphate, pH 7.0. The procedure: Selected test compounds were assessed for absorption between 300 and 750 nm. Most compound absorption spectra were obtained at 100, 50, and 10 μM final compound concentrations in ALARM NMR buffer (25 mM sodium phosphate, pH 7.0). Final concentration of DMSO was constant at 2.0% (v/v). Compounds were allowed to incubate at RT in buffer for 10 min in UV-transparent polystyrene 384-well plates. Absorbance spectra were then obtained on a SpectraMax M3 or BMG Labtech CLARIOstar microplate reader at 25 °C. Significant absorbance was defined as molar absorptivity constants greater than 2000 M^−1 cm^−1 at wavelengths greater than 300 nm.

Series [9] has as its system p300/CBP. The conditions noted are these: original report; 27 (Supplementary References); cited from earlier work.
On the set-up of series [10]: method as in not given. The note with it: noted in discussion; ref not given; cited from earlier work.

Regarding `N#Cc1c2ccc(N)cc2nc2cc(N)ccc12` [Compound 22, CTx-1], in series [1], the Ki – broadly, the equilibrium dissociation constant of an inhibitor or competing ligand from its target – is 2400 nM. In addition, the IC50 (in general, the concentration at which inhibition is half-maximal) in series [2] was over 100 µM. Also, in series [3], the “UPLC-MS buffer stability counter-screen” value is recorded as “Grossly stable”. In series [4], the “ALARM NMR, (-) DTT” value is given as “Negative”; the “ALARM NMR, (+) DTT” value is reported as “Negative”; the “ALARM NMR interpretation” value is on record as “Inert as tested”. In [5], the IC50 was over 100 µM. In addition, the Kd (as a rule, the free concentration of one partner at which half of the binding sites on the other are occupied at equilibrium, for simple one-to-one binding) in series [6] was 380 nM. Further, in series [7], the AmpC aggregation counter-screen entry is given as “Detergent-insensitive”. In series [8], the “Absorption max (nm)” value was “Nominal”. Further, the Absorbance counter-screen entry in series [8] (300-750 nm) is “Negative”.

For `CC(=O)N[C@H](CCCCNC(=O)CSCCNC(=O)CCNC(=O)C(O)C(C)(C)COP(=O)(O)OP(=O)(O)OC[C@H]1O[C@@H](n2cnc3c(N)ncnc32)[C@H](O)[C@@H]1OP(=O)(O)O)C(N)=O` (stereo partly shown) [Compound 23, Lys-CoA], the IC50 in series [9] is 0.5 µM. Further, in [4], the “ALARM NMR, (-) DTT” value was “Negative”; the “ALARM NMR, (+) DTT” value was “Negative”; the “ALARM NMR interpretation” value is on record as “Inert as tested”. For the same compound, in series [4] (overall readout), the “ALARM NMR readout” value is reported as “negative”. Besides, the cell permeability result in series [10] is listed as “cell-impermeable”. The IC50 in series [5] was 200 µM. Moreover, the AmpC aggregation counter-screen result in series [7] is reported as “Detergent-insensitive”.
